For 40 compounds, Ki results are on record in patent US8071600B2, “Derivatives of 4-piperazin-1-yl-4-benzo[B]thiophene suitable for the treatment of CNS disorders” (Otsuka Pharmaceutical Co., Ltd., priority 2005, dated 2011).

Where a name gives a salt, the structure may show the parent alone.

For one experiment, the target named is T1, Dopamine D2 receptor (Rattus norvegicus, UniProt P61169).
T1 construct: from tissue; host or cells: Wistar rat brain, corpus striatum membranes
The experiment in a line: Dopamine D2 receptor binding assay ([3H]-raclopride). As to conditions: Dopamine D2 receptor binding test, rat corpus striatum membrane, Ki calculated from IC50 by Cheng-Prussoff formula. The method, then: 1) Dopamine D2 Receptor Binding Assay
The assay was performed according to the method by Kohler et al. (Kohler C, Hall H, Ogren S O and Gawell L, Specific in vitro and in vivo binding of 3H-raclopride. A potent substituted benzamide drug with high affinity for dopamine D-2 receptors in the rat brain. Biochem. Pharmacol., 1985; 34: 2251-2259).
Wistar male rats were decapitated, the brain was retrieved immediately and corpus striatum was taken out. It was homogenized in 50 mM tris(hydroxymethyl)aminomethane (Tris)-hydrochloric acid buffer (pH 7.4) of a volume 50 times of the weight of the tissue using a homogenizer with a high-speed rotating blade, and centrifuged at 4° C., 48,000×g for 10 minutes. The obtained precipitate was suspended again in the above-described buffer of a volume 50 times of the weight of the tissue and after incubated at 37° C. for 10 minutes, centrifuged in the above-described condition. The obtained precipitate was suspended in 50 mM (Tris)-hydrochloric acid buffer (containing 120 mM NaCl, 5 mM KCl, 2 mM CaCl2, 1 mM MgCl2, pH 7.4) of a volume 25 times of the weight of the tissue and preserved by freezing at −85° C. till it was used for binding assay as a membrane specimen.
The binding assay was performed using 40 μl of the membrane specimen, 20 μl of [^3H]-raclopride (final concentration 1 to 2 nM), 20 μl of a test drug and 50 mM Tris-hydrochloric acid buffer (containing 120 mM NaCl, 5 mM KCl, 2 mM CaCl2, 1 mM MgCl2, pH 7.4) so that the total amount was 200 μl (final dimethylsulfoxide concentration 1%). The reaction was performed at room temperature for 1 hour and terminated by conducting suction filtration with a cell harvester on a glass fiber filter plate. The filter plate made of glass fiber was washed with 50 mM Tris-hydrochloric acid buffer (pH 7.4), and after dried, a microplate liquid scintillation cocktail was added and the radioactivity was measured with a microplate scintillation counter. Radioactivity in the presence of 10 μM (+)-butaclamol hydrochloride was assumed as nonspecific binding.
(§1) IC50 value was calculated from concentration-dependent reaction using a non-linear analysis program. Ki value was calculated from IC50 value using Cheng-Prussoff formula.

In experiment [1] the target is T2, Serotonin 5-HT2A receptor (Rattus norvegicus, UniProt P14842).
T2 construct: from tissue; host or cells: Wistar rat brain, frontal cortex membranes
The experiment in a line: Serotonin 5-HT2A receptor binding assay ([3H]-Ketanserin). The note with it: Serotonin 5-HT2A receptor binding test, rat frontal cortex membrane, Ki calculated from IC50 by Cheng-Prussoff formula. Here is the method:
2) Serotonin 5-HT2A Receptor Binding Assay
The assay was performed according to the method by Leysen J E et al. (Leysen J E, Niemegeers C J E, Van Nueten J M and Laduron P M. [3H] Ketanserin (R 41 468), a selective 3H-ligand for serotonin 2 receptor binding sites. Mol. Pharmacol., 1982, 21: 301-314).
Wistar male rats were decapitated, the brain was retrieved immediately and frontal cortex was taken out. It was homogenized in 0.25 M sucrose of a volume 10 times of the weight of the tissue using a Teflon glass homogenizer, and centrifuged at 4° C., 1,000×g for 10 minutes. The obtained supernatant was transferred to another centrifuge tube and suspended in 0.25 M sucrose of a volume 5 times of the weight of the tissue and the precipitate was centrifuged in the above-described condition. The obtained supernatant was combined with the supernatant obtained above and adjusted to a volume 40 times of the weight of the tissue with 50 mM Tris-hydrochloric acid buffer (pH 7.4), and centrifuged at 4° C., 35,000×g for 10 minutes. The obtained precipitate was suspended again in the above-described buffer of a volume 40 times of the weight of the tissue and centrifuged in the above-described condition. The obtained precipitate was suspended in the above-described buffer of a volume 20 times of the weight of the tissue and preserved by freezing at −85° C. till it was used for binding assay as a membrane specimen.
The binding assay was performed using 40 μl of the membrane specimen, 20 μl of [^3H]-Ketanserin (final concentration 1 to 3 nM), 20 μl of a test drug and 50 mM Tris-hydrochloric acid buffer (pH 7.4) so that the total amount was 200 μl (final dimethylsulfoxide concentration 1%). The reaction was performed at 37° C. for 20 minutes and terminated by conducting suction filtration with a cell harvester on a glass fiber filter plate.
The filter plate made of glass fiber was washed with 50 mM Tris-hydrochloric acid buffer (pH 7.4), and after dried, a microplate liquid scintillation cocktail was added and the radioactivity was measured with a microplate scintillation counter. Radioactivity in the presence of 10 μM spiperone was assumed as nonspecific binding.
as §1

T1 sequence (P61169 whole entry): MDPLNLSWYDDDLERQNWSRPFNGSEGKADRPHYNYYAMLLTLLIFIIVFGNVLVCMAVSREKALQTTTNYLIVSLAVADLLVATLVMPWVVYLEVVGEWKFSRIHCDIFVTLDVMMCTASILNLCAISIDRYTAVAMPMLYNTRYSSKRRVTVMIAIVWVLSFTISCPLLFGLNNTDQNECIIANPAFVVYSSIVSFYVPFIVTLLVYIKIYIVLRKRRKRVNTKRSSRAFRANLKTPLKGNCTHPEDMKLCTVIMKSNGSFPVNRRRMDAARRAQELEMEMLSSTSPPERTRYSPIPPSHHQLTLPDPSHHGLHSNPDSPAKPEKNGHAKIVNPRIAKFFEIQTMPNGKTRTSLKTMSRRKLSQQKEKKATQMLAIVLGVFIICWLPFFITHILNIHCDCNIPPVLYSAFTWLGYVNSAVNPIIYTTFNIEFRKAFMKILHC
T2 sequence (P14842 whole entry): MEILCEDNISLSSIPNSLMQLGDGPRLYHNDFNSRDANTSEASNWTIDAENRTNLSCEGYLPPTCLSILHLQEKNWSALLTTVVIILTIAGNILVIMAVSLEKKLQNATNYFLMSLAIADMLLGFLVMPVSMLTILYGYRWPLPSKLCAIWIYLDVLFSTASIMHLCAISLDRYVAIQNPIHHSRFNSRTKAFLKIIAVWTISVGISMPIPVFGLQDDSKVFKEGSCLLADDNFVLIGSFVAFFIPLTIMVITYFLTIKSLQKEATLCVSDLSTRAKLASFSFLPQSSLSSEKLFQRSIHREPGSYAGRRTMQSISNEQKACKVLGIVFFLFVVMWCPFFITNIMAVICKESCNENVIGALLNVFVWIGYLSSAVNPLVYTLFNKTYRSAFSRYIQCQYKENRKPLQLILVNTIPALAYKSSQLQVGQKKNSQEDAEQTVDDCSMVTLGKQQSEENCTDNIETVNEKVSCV

As a reminder, the Ki is the equilibrium dissociation constant of an inhibitor or competing ligand from its target. Take `Cn1nc(C(N)=O)cc1OCCCN1CCN(c2cccc3sccc23)CC1` [Example 4, 5-[3-(4-benzo[b]thiophen-4-yl-piperazin-1-yl)propoxy]-1-methyl-1H-pyrazole-3-carboxamide]: the Ki on Dopamine D2 receptor is 1.9 nM; in experiment [1], 7.7 nM.

`NC(=O)c1csc(OCCCN2CCN(c3cccc4sccc34)CC2)n1` [Example 7, 2-[3-(4-benzo[b]thiophen-4-yl-piperazin-1-yl)propoxy]thiazole-4-carboxamide]: the Ki was 0.8 nM on Dopamine D2 receptor and 2.9 nM in experiment [1].

For the compound `COC(=O)N(C)c1cc(C)c(OCCCN2CCN(c3cccc4sccc34)CC2)c(OC)c1` [Example 17, methyl N-methyl-{4-[3-(4-benzo[b]thiophen-4-yl-piperazin-1-yl)propoxy]-3-methoxy-5-methylphenyl}carbamate hydrochloride], the inhibition constant (Ki) on Dopamine D2 receptor is 0.6 nM; in experiment [1] it was 3.4 nM.

On to `CCNC(=O)c1ccc(OCCCN2CCN(c3cccc4sccc34)CC2)nc1` [Example 26], for which the results for the Ki (at Dopamine D2 receptor; in experiment [1]) were 2.6 nM and 0.8 nM, respectively.

For `CCNC(=O)c1ccnc(OCCCN2CCN(c3cccc4sccc34)CC2)c1` [Example 32], the Ki is 2.5 nM at Dopamine D2 receptor and 1.4 nM in experiment [1].

Turning to `Cc1ccc(OCCCN2CCN(c3cccc4sccc34)CC2)cn1` [Example 40], the Ki is 3.1 nM on Dopamine D2 receptor and 0.6 nM in experiment [1].

For `CNC(=O)c1cc(OCCCN2CCN(c3cccc4sccc34)CC2)ncn1` [Example 58], the Ki is 2 nM on Dopamine D2 receptor and 4.9 nM in experiment [1].

Take `CCNC(=O)c1cc(OCCCN2CCN(c3cccc4sccc34)CC2)n(C)n1` [Example 62]: the Ki is 1.6 nM at Dopamine D2 receptor and 4.7 nM in experiment [1].

As for `CCNC(=O)c1cc(OCCCN2CCN(c3cccc4sccc34)CC2)no1` [Example 72], the inhibitory constant (Ki) (on Dopamine D2 receptor; in experiment [1]) was 3.4 nM in each case.

With `CCNC(=O)c1csc(OCCCN2CCN(c3cccc4sccc34)CC2)n1` [Example 73], the inhibition constant Ki on Dopamine D2 receptor was 1.3 nM; in experiment [1], 5.6 nM.

`CNC(=O)c1cc(OCCCN2CCN(c3cccc4sccc34)CC2)cs1` [Example 76]: the values for the Ki (on Dopamine D2 receptor; in experiment [1]) were 2.5 nM and 1.7 nM, respectively.

Consider `c1cc(N2CCN(CCCCOc3ccncc3)CC2)c2ccsc2c1` [Example 80], for which the figures for the inhibition constant (Ki) (at Dopamine D2 receptor; in experiment [1]) were 1.6 nM and 3.3 nM, respectively.

Consider `Cn1cnc2ccc(OCCCN3CCN(c4cccc5sccc45)CC3)cc2c1=O` [Example 95], for which the figures for the Ki (at Dopamine D2 receptor; in experiment [1]) were 1.9 nM and 2.3 nM, respectively.

Consider `O=c1[nH]c2ccc(OCCCN3CCN(c4cccc5sccc45)CC3)cc2[nH]1` [Example 112], for which the values for the inhibition constant Ki (on Dopamine D2 receptor; in experiment [1]) were 1 nM and 0.7 nM, respectively.

Consider `Cc1cc(=O)oc2cc(OCCCN3CCN(c4cccc5sccc45)CC3)ccc12` [Example 115], for which the Ki is 1.6 nM at Dopamine D2 receptor and 3.7 nM in experiment [1].

With `Cn1cnc2cc(OCCCN3CCN(c4cccc5sccc45)CC3)ccc21` [Example 121], the Ki was 1.1 nM at Dopamine D2 receptor and 1.5 nM in experiment [1].

In the case of `CN1Cc2ccc(OCCCN3CCN(c4cccc5sccc45)CC3)cc2C1=O` [Example 123], the Ki is 0.7 nM at Dopamine D2 receptor and 1.4 nM in experiment [1].

As for `O=C1CCc2ccc(OCCCN3CCN(c4cccc5sccc45)CC3)cc21` [Example 125], the Ki at Dopamine D2 receptor is 2 nM; in experiment [1], 3.9 nM.

With `O=C1Cc2ccc(OCCCCN3CCN(c4cccc5sccc45)CC3)cc2N1` [Example 127], the Ki at Dopamine D2 receptor was 0.4 nM; in experiment [1] it was 2.4 nM.

Take `O=C1Nc2cc(OCCCCN3CCN(c4cccc5sccc45)CC3)ccc2CO1` [Example 133]: the values for the Ki (on Dopamine D2 receptor; in experiment [1]) were 0.3 nM and 4.7 nM, respectively.

Turning to `CC1Oc2ccc(OCCCCN3CCN(c4cccc5sccc45)CC3)cc2NC1=O` (centres unmarked) [Example 144], the Ki on Dopamine D2 receptor was 0.4 nM; in experiment [1], 1.4 nM.

For the compound `O=C1NCc2ccc(OCCCCN3CCN(c4cccc5sccc45)CC3)cc2N1` [Example 146], the figures for the inhibition constant Ki (at Dopamine D2 receptor; in experiment [1]) were 0.1 nM and 2.4 nM, respectively.

As for `CCN(CC)CCNC(=O)c1ccc(OCCCN2CCN(c3cccc4sccc34)CC2)cc1` [Example 160], the Ki at Dopamine D2 receptor was 0.4 nM; in experiment [1] it was 0.6 nM.

On to `CNC(=O)c1ccc(OC)c(OCCCN2CCN(c3cccc4sccc34)CC2)c1` [Example 281], for which the Ki at Dopamine D2 receptor is 0.3 nM; in experiment [1] it was 0.6 nM.

`CCNCc1ccc(OCCCN2CCN(c3cccc4sccc34)CC2)cc1` [Example 286]: the inhibition constant (Ki) at Dopamine D2 receptor was 0.2 nM; in experiment [1], 0.8 nM.

`CN(C)Cc1ccc(OCCCN2CCN(c3cccc4sccc34)CC2)c(Cl)c1` [Example 303]: the Ki was 1 nM at Dopamine D2 receptor and 2.5 nM in experiment [1].

With `CCN(C)Cc1ccc(OCCCN2CCN(c3cccc4sccc34)CC2)c(C)c1` [Example 307], the values for the Ki (on Dopamine D2 receptor; in experiment [1]) were 0.3 nM and 0.7 nM, respectively.

Turning to `c1cc(N2CCN(CCCOc3ccc(CN4CCOCC4)cc3)CC2)c2ccsc2c1` [Example 313], the Ki is 0.7 nM on Dopamine D2 receptor and 1.1 nM in experiment [1].

For `CN1CCN(Cc2ccc(OCCCN3CCN(c4cccc5sccc45)CC3)cc2)CC1` [Example 314], the Ki (on Dopamine D2 receptor; in experiment [1]) was 0.8 nM each time.

With `CC(=O)Nc1ccc(OCCCN2CCN(c3cccc4sccc34)CC2)cc1` [Example 343], the values for the Ki (at Dopamine D2 receptor; in experiment [1]) were 0.9 nM and 0.5 nM, respectively.

As for `CCS(=O)(=O)Nc1ccc(OCCCN2CCN(c3cccc4sccc34)CC2)cc1` [Example 345], the values for the Ki (at Dopamine D2 receptor; in experiment [1]) were 1.6 nM and 1.9 nM, respectively.

For `COc1cc(NC=O)cc(C)c1OCCCN1CCN(c2cccc3sccc23)CC1` [Example 354], the inhibitory constant (Ki) at Dopamine D2 receptor is 0.2 nM; in experiment [1], 0.6 nM.

`COc1cc(N2CCOC2=O)cc(C)c1OCCCN1CCN(c2cccc3sccc23)CC1` [Example 358]: the inhibition constant (Ki) is 0.2 nM on Dopamine D2 receptor and 1.1 nM in experiment [1].

Consider `COc1cc(N2CCCC2=O)cc(CO)c1OCCCN1CCN(c2cccc3sccc23)CC1` [Example 359], for which the inhibitory constant (Ki) was 0.2 nM at Dopamine D2 receptor and 1.1 nM in experiment [1].

As to `COC(=O)Nc1ccc(OCCCN2CCN(c3cccc4sccc34)CC2)c(F)c1` [Example 363], the values for the Ki (at Dopamine D2 receptor; in experiment [1]) were 2 nM and 1.1 nM, respectively.

For `CCN(CC)CCc1ccc(OCCCN2CCN(c3cccc4sccc34)CC2)cc1` [Example 368], the Ki at Dopamine D2 receptor was 0.4 nM; in experiment [1], 0.7 nM.

For the compound `CN(C)CCc1ccc(OCCCN2CCN(c3cccc4sccc34)CC2)cc1` [Example 382], the values for the Ki (at Dopamine D2 receptor; in experiment [1]) were 0.5 nM and 0.6 nM, respectively.

`CC(C)N(CCNC(=O)c1ccc(OCCCN2CCN(c3cccc4sccc34)CC2)cc1)C(C)C` [Example 546]: the Ki was 0.6 nM on Dopamine D2 receptor and 0.7 nM in experiment [1].

For `O=C(NCCCn1ccnc1)c1ccc(OCCCN2CCN(c3cccc4sccc34)CC2)cc1` [Example 650], the inhibition constant Ki at Dopamine D2 receptor was 1.2 nM; in experiment [1], 0.6 nM.

Regarding `O=C(c1ccc(OCCCN2CCN(c3cccc4sccc34)CC2)cc1)N1CCN(c2ccncc2)CC1` [Example 706], the values for the Ki (at Dopamine D2 receptor; in experiment [1]) were 1 nM and 0.9 nM, respectively.
